Laboratory results reported in patent publication US12077503B2, “Substituted cyclic amides and their use as herbicides” (FMC CORPORATION, priority 2015, dated 2024).

Experiments:
Assay type in all cases: in vivo
[1] = test system: Kochia (Kochia scoparia); test: Test A preemergence
Summary of the method: (§1)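 Greenhouse, ~10 d after spray; visual injury vs untreated controls, 0 = no effect, 100 = complete control. Preemergence: directed soil spray over planted seeds. Postemergence: plants 2–10 cm, 1–2 leaf stage. Loam/sand blend. Compound in non-phytotoxic solvent with surfactant.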

[2] = test system: barnyardgrass (Echinochloa crus-galli); test: Test A preemergence
Summary of the method: as §1

[3] = test system: giant foxtail (Setaria faberii); test: Test A preemergence
Summary of the method: as §1

[4] = test system: pigweed (Amaranthus retroflexus); test: Test A preemergence; conditions: for Plant response rating, Pigweed: preemergence
[5] = test system: ragweed (common ragweed, Ambrosia elatior); test: Test A preemergence; conditions: preemergence
Summary of the method: as §1

[6] = test system: ryegrass, Italian (Italian ryegrass, Lolium multiflorum); test: Test A preemergence; conditions: for Plant response rating, Ryegrass, Italian: preemergence
Summary of the method: as §1

[7] = test system: Galium (catchweed bedstraw, Galium aparine); test: Test A postemergence; conditions: postemergence
Summary of the method: as §1

[8] = test system: Kochia (Kochia scoparia); test: Test A postemergence; conditions: postemergence
Summary of the method: as §1

[9] = test system: barnyardgrass (Echinochloa crus-galli); test: Test A postemergence; conditions: postemergence
Summary of the method: as §1

[10] = test system: blackgrass (Alopecurus myosuroides); test: Test A postemergence; conditions: postemergence
Summary of the method: as §1

[11] = test system: corn (Zea mays); test: Test A postemergence; conditions: postemergence
Summary of the method: as §1

[12] = test system: giant foxtail (Setaria faberii); test: Test A postemergence; conditions: postemergence
Summary of the method: as §1

[13] = test system: pigweed (Amaranthus retroflexus); test: Test A postemergence; conditions: postemergence
Summary of the method: as §1

[14] = test system: ragweed (common ragweed, Ambrosia elatior); test: Test A postemergence; conditions: postemergence
Summary of the method: as §1

[15] = test system: ryegrass, Italian (Italian ryegrass, Lolium multiflorum); test: Test A postemergence; conditions: postemergence
Summary of the method: as §1

[16] = test system: wheat (Triticum aestivum); test: Test A postemergence; conditions: postemergence
Summary of the method: as §1

[17] = test system: barnyardgrass (Echinochloa crus-galli); test: Test B flooded paddy test; conditions: Flood, 250 g ai/ha; 0 to 100 scale where 0 is no effect and 100 is complete control; 13 to 15 d
Summary of the method: (§2)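 Flooding to 3 cm over soil accompanied treatment, which consisted of adding compound to the standing water around 2-leaf plants; depth was then maintained. Visual assessment versus controls followed at 13 to 15 d (scale 0–100, 0 meaning no effect).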

[18] = test system: ducksalad (Heteranthera limosa); test: Test B flooded paddy test; conditions: Flood, 250 g ai/ha; 0 to 100 scale where 0 is no effect and 100 is complete control; 13 to 15 d
Summary of the method: as §2

[19] = test system: rice (Oryra sativa); test: Test B flooded paddy test; conditions: Flood, 250 g ai/ha; 0 to 100 scale where 0 is no effect and 100 is complete control; 13 to 15 d
Summary of the method: as §2

[20] = test system: sedge, umbrella (small-flower umbrella sedge, Cyperus difformis); test: Test B flooded paddy test; conditions: Flood, 250 g ai/ha
Summary of the method: as §2

[21] = test system: blackgrass (Alopecurus myosuroides); test: Test C preemergence; conditions: for Plant response rating (scale of 0 to 100), Blackgrass: 0 is no effect, 100 is complete control; for Plant response rating, Blackgrass: scale 0 to 100, 0 no effect, 100 complete control
Description: Seeds of plant species selected from blackgrass (Alopecurus myosuroides), ryegrass, Italian (Italian ryegrass, Lolium multiflorum), wheat (winter wheat, Triticum aestivum), Galium (catchweed bedstraw, Galium aparine), corn (Zea mays), crabgrass, large (large crabgrass, Digitaria sanguinalis), foxtail, giant (giant foxtail, Setaria faberii), johnsongrass (Sorghum halepense), lambsquarters (Chenopodium album), morningglory (Ipomoea coccinea), nutsedge, yellow (yellow nutsedge, Cyperus esculentus), pigweed (Amaranthus retroflexus), ragweed (common ragweed, Ambrosia elatior), soybean (Glycine max), barnyardgrass (Echinochloa crus-galli), oilseed rape (Brassica napus), waterhemp (common waterhemp, Amaranthus rudis) and velvetleaf (Abutilon theophrasti) were planted into a blend of loam soil and sand and treated preemergence with test chemicals formulated in a non-phytotoxic solvent mixture which included a surfactant.
At the same time, plants selected from these crop and weed species and also Kochia (Kochia scoparia), oat, wild (wild oat, Avena fatua), and chickweed (common chickweed, Stellaria media) were planted in pots containing Sunshine Redi-Earth® planting medium comprising spaghnum peat moss, vermiculite, starter nutrients and dolomitic limestone and treated with postemergence applications of test chemicals formulated in the same manner. Plants ranged in height from 2 to 18 cm (1- to 4-leaf stage) for postemergence treatments. Treated plants and controls were maintained in a greenhouse for 13 to 15 d, after which time all species were compared to controls and visually evaluated. Plant response ratings, summarized in Table C, are based on a scale of 0 to 100 where 0 is no effect and 100 is complete control. A dash (-) response means no test result.

[22] = 125 g ai/ha, Preemergence, visual injury after approximately 10 d, 0 to 100 scale where 0 is no effect and 100 is complete control
[23] = 500 g ai/ha, preemergence, 0 to 100 scale, 0 = no effect, 100 = complete control
[24] = 125 g ai/ha, visual rating after approx. 10 d, 0 to 100 scale where 0 is no effect and 100 is complete control
[25] = 500 g ai/ha, 0 to 100 scale, 0 = no effect, 100 = complete control
[26] = 125 g ai/ha, visual injury after approximately 10 d, 0 to 100 scale (0 no effect, 100 complete control)
[27] = 500 g ai/ha, visual injury, 0 to 100 scale (0 no effect, 100 complete control), approx. 10 d
[28] = 125 g ai/ha, visual rating after approx. 10 d, 0 to 100 scale (0 no effect, 100 complete control)
[29] = 125 g ai/ha, preemergence, 0 to 100 scale (0 no effect, 100 complete control)
[30] = Preemergence, 500 g ai/ha, visual injury approx. 10 d
[31] = 125 g ai/ha, 0 to 100 scale (0 no effect, 100 complete control)
[32] = 125 g ai/ha, visual injury rating on 0 to 100 scale (0 no effect, 100 complete control), approx. 10 d
[33] = 500 g ai/ha, 0 to 100 scale, 0 no effect, 100 complete control

SMILES: CN1CC(c2ccc(C(C)(F)F)cc2)C(C(=O)Nc2ccccc2F)C1=O (stereo not shown) [Compound 691]
- Plant response rating, Kochia [1, 22]: 80
- Plant response rating, Kochia [1, 23]: 90
- Plant response rating, Barnyardgrass [2, 22]: 90
- Plant response rating, Barnyardgrass [2, 23]: 90
- Plant response rating, Foxtail, Giant [3, 22]: 90
- Plant response rating, Foxtail, Giant [3, 23]: 90
- Plant response rating, Pigweed [4, 24]: 70
- Plant response rating, Pigweed [4, 25]: 80
- Plant response rating, Ragweed [5, 24]: 60
- Plant response rating, Ragweed [5, 25]: 90
- Plant response rating, Ryegrass, Italian [6, 24]: 50
- Plant response rating, Ryegrass, Italian [6, 25]: 60
- Plant response rating, Galium [7, 26]: 70
- Plant response rating, Galium [7, 27]: 70
- Plant response rating, Kochia [8, 26]: 70
- Plant response rating, Kochia [8, 27]: 80
- Plant response rating, Barnyardgrass [9, 28]: 80
- Plant response rating, Barnyardgrass [9, 27]: 80
- Plant response rating, Blackgrass [10, 28]: 50
- Plant response rating, Blackgrass [10, 27]: 60
- Plant response rating, Corn [11, 26]: 60
- Plant response rating, Corn [11, 27]: 90
- Plant response rating, Foxtail, Giant [12, 26]: 80
- Plant response rating, Foxtail, Giant [12, 27]: 80
- Plant response rating, Pigweed [13, 26]: 40
- Plant response rating, Pigweed [13, 27]: 70
- Plant response rating, Ragweed [14, 26]: 50
- Plant response rating, Ragweed [14, 27]: 60
- Plant response rating, Ryegrass, Italian [15, 26]: 50
- Plant response rating, Ryegrass, Italian [15, 27]: 60
- Plant response rating, Wheat [16, 26]: 50
- Plant response rating, Wheat [16, 27]: 60
- Plant response rating, Barnyardgrass [17]: 70
- Plant response rating, Ducksalad [18]: 95
- Plant response rating, Rice [19]: 25
- Sedge, Umbrella plant response rating ([20]; scale of 0 to 100 where 0 is no effect and 100 is complete control): 0
- Plant response rating (scale of 0 to 100), Blackgrass ([21]; 16 g ai/ha): 0
- Plant response rating (scale of 0 to 100), Blackgrass ([21]; 31 g ai/ha): 0
- Plant response rating, Blackgrass ([21]; 62 g ai/ha): 5
- Plant response rating, Blackgrass ([21]; 125 g ai/ha): 75

SMILES: Cc1ccc(C2CN(C)C(=O)C2C(=O)Nc2cccc(F)c2F)cc1F (stereo not shown) [Compound 464]
- Plant response rating, Kochia [1, 29]: 70
- Kochia plant response rating (0 to 100 scale, 0 is no effect, 100 is complete control) [1, 30]: 80
- Plant response rating, Barnyardgrass [2, 29]: 90
- Barnyardgrass plant response rating (0 to 100 scale, 0 is no effect, 100 is complete control) [2, 30]: 90
- Plant response rating, Foxtail, Giant [3, 29]: 90
- Foxtail, Giant plant response rating (0 to 100 scale, 0 is no effect, 100 is complete control) [3, 30]: 90
- Plant response rating, Pigweed [4, 31]: 70
- Pigweed plant response rating (0 to 100 scale, 0 is no effect, 100 is complete control) [4, 30]: 70
- Plant response rating, Ragweed [5, 31]: 50
- Plant response rating, Ryegrass, Italian [6, 31]: 70
- Ryegrass, Italian plant response rating (0 to 100 scale, 0 is no effect, 100 is complete control) [6, 30]: 90
- Galium plant response rating [7, 32]: 60
- Plant response rating, Galium [7, 33]: 70
- Kochia plant response rating [8, 32]: 50
- Plant response rating, Kochia [8, 33]: 60
- Barnyardgrass plant response rating [9, 32]: 90
- Plant response rating, Barnyardgrass [9, 33]: 90
- Blackgrass plant response rating [10, 32]: 60
- Plant response rating, Blackgrass [10, 33]: 70
- Corn plant response rating [11, 32]: 90
- Plant response rating, Corn [11, 33]: 90
- Foxtail, Giant plant response rating [12, 32]: 90
- Plant response rating, Foxtail, Giant [12, 33]: 90
- Pigweed plant response rating [13, 32]: 40
- Plant response rating, Pigweed [13, 33]: 50
- Ragweed plant response rating [14, 32]: 30
- Plant response rating, Ragweed [14, 33]: 30
- Ryegrass, Italian plant response rating [15, 32]: 70
- Plant response rating, Ryegrass, Italian [15, 33]: 80
- Wheat plant response rating [16, 32]: 70
- Plant response rating, Wheat [16, 33]: 70
- Plant response rating, Barnyardgrass [17]: 70
- Plant response rating, Ducksalad [18]: 100
- Plant response rating, Rice [19]: 20
- Plant response rating, Sedge, Umbrella ([20]; 0 to 100 scale where 0 is no effect and 100 is complete control, 13 to 15 d): 0
- Plant response rating, Blackgrass ([21]; 31 g ai/ha): 80
- Plant response rating, Blackgrass ([21]; 62 g ai/ha): 85
- Plant response rating, Blackgrass ([21]; 125 g ai/ha): 85
- Plant response rating, Blackgrass ([21]; 250 g ai/ha): 85
